US9512115B2, “Inhibitors” (PROBIODRUG AG, priority 2013, dated 2016)

Assay: Pharmacokinetic parameters in mice after oral administration (plasma, brain, CSF)
Type: in vivo, mice (strain CD-1)
Details: brain tissue vs plasma; CD-1 mice, 30 mg/kg orally
Description: The mice were anesthetized with Isoflurane. Approximate 200 μL of each blood sample were collected via cardiac puncture for terminal bleeding into K2EDTA tubes. […] CSF collection: The animals were euthanized with pure CO2 inhalation. A mid line incision was made on the neck. The muscle under the skin was cut to expose the cisterna magna. The cisterna magna was penetrated with the sharp end of a capillary and CSF was collected via capillarity. […] A mid-line incision was made in the animal scalp. The brain was removed and rinsed with cold saline. Brain was placed into a screw-top tube and weighed. […] The brain concentration was corrected with a dilution factor of 4 as following: Brain concentration=brain homogenate conc.×4, assuming 1 g wet brain tissue equals to 1 ml. For plasma samples: […] For Brain samples: Brain tissue was homogenized for 2 min with 3 volumes (v/w) of PBS. […] For CSF samples: […] Tmax, T1/2, AUC and log BB values were calculated using conventional methods.

`O=C1OC[C@H](c2ccc(OCCC(F)F)c(F)c2F)N1c1ccc2[nH]cnc2c1` [compound 11, (S)-3-(1H-benzo[d]imidazol-5-yl)-4-(4-(3,3-difluoropropoxy)-2,3-difluorophenyl)oxazolidin-2-one] and `CC(F)(F)CCOc1ccc([C@H]2COC(=O)N2c2ccc3[nH]cnc3c2)c(F)c1F` [compound 1, (S)-3-(1H-benzo[d]imidazol-5-yl)-4-(4-(3,3-difluorobutoxy)-2,3-difluorophenyl)-oxazolidin-2-one] are within 0.2 log units of each other in logBB: −0.9451 for the first, −0.9363 for the second.

`O=C1OC[C@H](c2ccc(OCCC(F)F)c(F)c2)N1c1ccc2[nH]cnc2c1` [compound 12, (S)-3-(1H-benzo[d]imidazol-5-yl)-4-(4-(3,3-difluoropropoxy)-3-fluorophenyl)oxazolidin-2-one] and `CC(F)(F)CCOc1ccc([C@H]2COC(=O)N2c2ccc3[nH]cnc3c2)cc1F` [compound 10, (S)-3-(1H-benzo[d]imidazol-5-yl)-4-(4-(3,3-difluorobutoxy)-3-fluorophenyl)oxazolidin-2-one] are within 0.2 log units of each other in logBB: −1.1821 for the first, −1.1234 for the second.

`CC(F)(F)COc1ccc([C@H]2COC(=O)N2c2ccc3[nH]cnc3c2)cc1F` [compound 5, (S)-3-(1H-benzo[d]imidazol-5-yl)-4-(4-(2,2-difluoropropoxy)-3-fluorophenyl)oxazolidin-2-one] and `CC(F)(F)COc1ccc([C@H]2COC(=O)N2c2ccc3[nH]cnc3c2)c(F)c1` [compound 7, (S)-3-(1H-benzo[d]imidazol-5-yl)-4-(4-(2,2-difluoropropoxy)-2-fluorophenyl)oxazolidin-2-one] are within 0.2 log units of each other in logBB: −1.0928 for the first, −0.9439 for the second.

`CC(F)(F)COc1c(F)cc([C@H]2COC(=O)N2c2ccc3[nH]cnc3c2)cc1F` [compound 8, (S)-3-(1H-benzo[d]imidazol-5-yl)-4-(4-(2,2-difluoropropoxy)-3,5-difluorophenyl)oxazolidin-2-one] and `CC(F)(F)COc1ccc([C@H]2COC(=O)N2c2ccc3[nH]cnc3c2)c(F)c1F` [compound 6, (S)-3-(1H-benzo[d]imidazol-5-yl)-4-(4-(2,2-difluoropropoxy)-2,3-difluorophenyl)oxazolidin-2-one] are within 0.2 log units of each other in logBB: −0.9993 for the first, −1.0431 for the second.

`O=C1OC[C@H](c2ccc(N3CCC(F)(F)C3)cc2F)N1c1ccc2[nH]cnc2c1` [compound 18, (S)-3-(1H-benzo[d]imidazol-5-yl)-4-(4-(3,3-difluoropyrrolidin-1-yl)-2-fluorophenyl)-oxazolidin-2-one] and `O=C1OC[C@H](c2ccc(N3CCC(F)(F)C3)c(F)c2)N1c1ccc2[nH]cnc2c1` [compound 21, (S)-3-(1H-benzo[d]imidazol-5-yl)-4-(4-(3,3-difluoropyrrolidin-1-yl)-3-fluorophenyl) oxazolidin-2-one] are within 0.2 log units of each other in logBB: −1.2913 for the first, −1.208 for the second.

`CC(F)(F)CCOc1ccc([C@H]2COC(=O)N2c2ccc3[nH]cnc3c2)c(F)c1` [compound 3, (S)-3-(1H-benzo[d]imidazol-5-yl)-4-(4-(3,3-difluorobutoxy)-2-fluorophenyl)oxazolidin-2-one] and `O=C1OC[C@H](c2ccc(OCCC(F)F)cc2F)N1c1ccc2[nH]cnc2c1` [compound 2, (S)-3-(1H-benzo[d]imidazol-5-yl)-4-(4-(3,3-difluoropropoxy)-2-fluorophenyl)oxazolidin-2-one] are within 0.2 log units of each other in logBB: −1.0428 for the first, −1.1517 for the second.

With `O=C1OC[C@H](c2ccc(N3CCC(F)(F)C3)c(F)c2F)N1c1ccc2[nH]cnc2c1` [compound 19, (S)-3-(1H-benzo[d]imidazol-5-yl)-4-(4-(3,3-difluoropyrrolidin-1-yl)-2,3-difluorophenyl)-oxazolidin-2-one] the logBB was −1.2208.
